How the values were obtained:
[1] = molecular target: Neuronal acetylcholine receptor; alpha4/beta2 (Rattus norvegicus, UniProt P09483+P12390); assay: Displacement of [3H]cytisine from nAChR alpha4beta2 in rat brain membrane; type: cell membranes
[2] = Agonist activity at nAChR alpha3beta4* expressed in human IMR32 cells assessed as calcium flux by FLIPR assay; type: functional, cell-based
[3] = Agonist activity at nAChR alpha3beta4* expressed in human IMR32 cells assessed as calcium flux by FLIPR assay relative to nicotine; type: functional; details: IMR-32
[4] = Drug uptake in rat brain at 2 umol/kg, ip measured after 0.75 hrs; type: ADME, organism-based; details: read-out: Drug uptake
[5] = Drug uptake in rat plasma at 2 umol/kg, ip measured after 0.75 hrs; type: ADME, organism-based
[6] = Ratio drug uptake in brain to plasma of rat at 2 umol/kg, ip measured after 0.75 hrs; type: ADME, organism-based; details: read-out: BPR
[7] = Half life in rat at 2 umol/kg, iv measured after 8 hrs; type: ADME, organism-based; details: in vivo
[8] = Half life in rat at 2 umol/kg, ip measured after 8 hrs; type: ADME, organism-based; details: in vivo
[9] = Half life in rat at 2 umol/kg, po measured after 8 hrs; type: ADME, organism-based; details: in vivo
[10] = Bioavailability in rat at 2 umol/kg, ip; type: ADME, organism-based; details: in vivo
[11] = Oral bioavailability in rat at 2 umol/kg; type: ADME, organism-based; details: in vivo

Neuronal acetylcholine receptor; alpha4/beta2, sequence (P09483 whole entry): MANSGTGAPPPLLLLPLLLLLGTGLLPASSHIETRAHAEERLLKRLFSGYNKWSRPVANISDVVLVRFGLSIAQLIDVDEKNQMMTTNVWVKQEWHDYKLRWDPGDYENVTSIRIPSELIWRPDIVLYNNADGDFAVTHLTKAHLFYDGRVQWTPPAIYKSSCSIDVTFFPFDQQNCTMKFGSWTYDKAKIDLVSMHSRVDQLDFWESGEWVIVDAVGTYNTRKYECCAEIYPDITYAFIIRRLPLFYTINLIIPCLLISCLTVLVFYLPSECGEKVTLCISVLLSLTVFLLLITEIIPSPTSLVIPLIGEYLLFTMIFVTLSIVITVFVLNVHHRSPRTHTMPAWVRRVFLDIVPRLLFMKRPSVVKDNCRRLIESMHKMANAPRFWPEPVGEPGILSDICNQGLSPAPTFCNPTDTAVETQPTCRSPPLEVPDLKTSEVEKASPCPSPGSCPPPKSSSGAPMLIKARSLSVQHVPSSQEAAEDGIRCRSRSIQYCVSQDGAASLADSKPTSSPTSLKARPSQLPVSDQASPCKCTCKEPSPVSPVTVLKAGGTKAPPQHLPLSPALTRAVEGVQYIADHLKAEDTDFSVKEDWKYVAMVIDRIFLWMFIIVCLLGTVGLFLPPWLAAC
Neuronal acetylcholine receptor; alpha4/beta2, sequence (P12390 whole entry): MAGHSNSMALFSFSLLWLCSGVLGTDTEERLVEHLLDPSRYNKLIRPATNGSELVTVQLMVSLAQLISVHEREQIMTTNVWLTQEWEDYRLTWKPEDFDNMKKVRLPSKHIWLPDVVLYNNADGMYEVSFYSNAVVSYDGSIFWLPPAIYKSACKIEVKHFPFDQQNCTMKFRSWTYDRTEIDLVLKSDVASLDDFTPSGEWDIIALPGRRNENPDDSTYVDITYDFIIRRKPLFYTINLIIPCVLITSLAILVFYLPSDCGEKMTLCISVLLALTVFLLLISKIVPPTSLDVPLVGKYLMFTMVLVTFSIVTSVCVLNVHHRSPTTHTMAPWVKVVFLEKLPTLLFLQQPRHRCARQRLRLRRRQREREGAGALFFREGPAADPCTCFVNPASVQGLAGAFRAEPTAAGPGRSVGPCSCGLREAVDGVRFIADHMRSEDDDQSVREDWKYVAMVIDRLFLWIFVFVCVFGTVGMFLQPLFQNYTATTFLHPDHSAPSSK

SMILES	Ki ([1]; read-out: Ki) [nM]	EC50 ([2]; IMR-32, read-out: EC50) [nM]	Emax [3] [%]	other results
c1cncc(N2C[C@H]3CNC[C@H]3C2)c1	0.13	–	–	–
c1cncc(N2C[C@H]3CCN[C@H]3C2)c1	0.34	–	–	–
c1cncc(N2C[C@@H]3CCN[C@@H]3C2)c1	2.9	–	–	–
c1cnc(N2C[C@H]3CNC[C@H]3C2)cn1	7.8	–	–	–
Cc1ccccc1CNC(=O)c1cncc(N2C[C@@H]3CCN[C@@H]3C2)n1	> 10000	–	–	Ki ([1]; read-out: pKi (converted)): > 10000 nM
Cc1cccc(NC(=O)c2cncc(N3C[C@H]4CNC[C@H]4C3)n2)c1	7.6	> 100000	10	–
Cc1ccccc1CNC(=O)c1cncc(N2C[C@H]3CNC[C@H]3C2)c1	2.7	> 100000	8	concentration at 0.75 h [4]: 3.3 ng/mL; concentration at 0.75 h [5]: 142 ng/mL; Kp at 0.75 h [6]: 0.02
Cc1ccccc1CNC(=O)c1cncc(N2CC[C@H]3CNC[C@H]32)c1	871	–	–	–
O=C(NCCc1ccccc1)c1cncc(N2C[C@H]3CNC[C@H]3C2)n1	69	> 100000	13	–
CN(Cc1ccccc1)C(=O)c1cncc(N2C[C@H]3CNC[C@H]3C2)n1	174	–	–	–
CC(NC(=O)c1cncc(N2C[C@H]3CNC[C@H]3C2)n1)c1ccccc1 (stereo not given in full)	132	–	–	–
O=C(Nc1cc(F)cc(F)c1)c1cncc(N2C[C@H]3CNC[C@H]3C2)n1	14	> 100000	8	–
C[C@@H](NC(=O)c1cncc(N2C[C@H]3CNC[C@H]3C2)c1)c1ccccc1	2.2	> 100000	6	concentration at 0.75 h [4]: 20.6 ng/mL; concentration at 0.75 h [5]: 139 ng/mL; Kp at 0.75 h [6]: 0.15
O=C(NCc1ccccc1C(F)(F)F)c1cncc(N2C[C@H]3CNC[C@H]3C2)c1	0.9	> 100000	4	concentration at 0.75 h [4]: 6.9 ng/mL; concentration at 0.75 h [5]: 164 ng/mL; Kp at 0.75 h [6]: 0.04
O=C(c1cncc(N2C[C@H]3CNC[C@H]3C2)c1)N1CCc2ccccc2C1	0.3	> 100000	7	–
O=C(NCCc1ccccc1F)c1cncc(N2C[C@H]3CNC[C@H]3C2)c1	0.8	15800	6	EC50 ([2]; IMR-32, read-out: pEC50 (converted)): 15800 nM
O=C(Nc1cccc(I)c1)c1cncc(N2C[C@H]3CNC[C@H]3C2)c1	0.02	> 100000	6	Ki ([1]; read-out: pKi (converted)): 0.0245 nM
O=C(Nc1ccc(Cl)cc1)c1cncc(N2C[C@H]3CNC[C@H]3C2)c1	0.2	> 100000	8	–
Cc1cccc(NC(=O)c2cncc(N3C[C@H]4CNC[C@H]4C3)c2)c1	0.1	> 100000	6	concentration at 0.75 h [4]: 6.4 ng/mL; concentration at 0.75 h [5]: 52.1 ng/mL; Kp at 0.75 h [6]: 0.12
COc1cc(NC(=O)c2cncc(N3C[C@H]4CNC[C@H]4C3)c2)cc(OC)c1	0.3	> 100000	10	concentration at 0.75 h [4]: 5.5 ng/mL; concentration at 0.75 h [5]: 74.5 ng/mL; Kp at 0.75 h [6]: 0.07
c1ccc(COc2cncc(N3C[C@H]4CNC[C@H]4C3)n2)cc1	–	–	–	concentration at 0.75 h [4]: 76.8 ng/mL; concentration at 0.75 h [5]: 23.5 ng/mL; Kp at 0.75 h [6]: 3.27

Further lines, with some results ahead:

Ki ([1]; read-out: Ki) [nM]	EC50 ([2]; IMR-32, read-out: EC50) [nM]	SMILES	Emax [3] [%]	other results
1.7	> 100000	Cc1ccccc1CNC(=O)c1cncc(N2C[C@H]3CNC[C@H]3C2)n1	17	concentration at 0.75 h [4]: 8 ng/mL; concentration at 0.75 h [5]: 178 ng/mL; Kp at 0.75 h [6]: 0.04; half-life [7]: 1.7 h; half-life [8]: 2.4 h; half-life [9]: 2.1 h; bioavailability [10]: 77%; bioavailability [11]: 35%
5600	–	Cc1ccccc1CNC(=O)c1cncc(N2CC[C@@H]3CNC[C@@H]32)n1	–	–
2630	–	Cc1cccc(NC(=O)c2cncc(N3C[C@@H]4CCN[C@@H]4C3)n2)c1	–	–
3.9	> 100000	O=C(NCc1ccccc1)c1cncc(N2C[C@H]3CNC[C@H]3C2)n1	10	concentration at 0.75 h [4]: 3 ng/mL; concentration at 0.75 h [5]: 81.3 ng/mL; Kp at 0.75 h [6]: 0.04
2.5	> 100000	O=C(NCc1ccc(Cl)c(Cl)c1)c1cncc(N2C[C@H]3CNC[C@H]3C2)n1	12	–
0.7	> 100000	O=C(Nc1cccc(Cl)c1)c1cncc(N2C[C@H]3CNC[C@H]3C2)n1	26	–
3.3	> 100000	O=C(Nc1cccc(I)c1)c1cncc(N2C[C@H]3CNC[C@H]3C2)n1	7	–
35	–	CC(C)c1cccc(NC(=O)c2cncc(N3C[C@H]4CNC[C@H]4C3)n2)c1	–	–
26	> 100000	CC(C)Oc1cccc(NC(=O)c2cncc(N3C[C@H]4CNC[C@H]4C3)n2)c1	7	–
51	–	Cc1cc(C)cc(NC(=O)c2cncc(N3C[C@H]4CNC[C@H]4C3)n2)c1	–	–
39	> 100000	C[C@H](NC(=O)c1cncc(N2C[C@H]3CNC[C@H]3C2)c1)c1ccccc1	5	–
3.9	> 100000	CN(Cc1ccccc1)C(=O)c1cncc(N2C[C@H]3CNC[C@H]3C2)c1	14	concentration at 0.75 h [4]: 6 ng/mL; concentration at 0.75 h [5]: 89.8 ng/mL; Kp at 0.75 h [6]: 0.07
17	> 100000	O=C(NC1CCc2ccccc21)c1cncc(N2C[C@H]3CNC[C@H]3C2)c1 (stereo not given in full)	10	–
1.1	> 100000	CC(C)Oc1cccc(NC(=O)c2cncc(N3C[C@H]4CNC[C@H]4C3)c2)c1	10	–
0.3	> 100000	Cc1cc(C)cc(NC(=O)c2cncc(N3C[C@H]4CNC[C@H]4C3)c2)c1	6	Ki ([1]; read-out: pKi (converted)): 0.339 nM
0.04	> 100000	O=C(Nc1cc(F)cc(F)c1)c1cncc(N2C[C@H]3CNC[C@H]3C2)c1	18	–

— ChEMBL document CHEMBL1938346, “Structure-activity studies of diazabicyclo[3.3.0]octane-substituted pyrazines and pyridines as potent α4β2 nicotinic acetylcholine receptor ligands” (J Med Chem, 2011)
